Data set [1] can be described thus: physchem.
The conditions of data set [2]: octanol/water.
Data set [3] in a line: physchem. Conditions: octanol/water, pH 6.5.
The nature of the next data set: clinical. The note with it: human, in vivo, po.

For orientation: pKa means the negative logarithm of the acid dissociation constant. A low value points to a group that gives up its proton readily. As a reminder, the logD is the decadic logarithm of the distribution of all forms, ionised or not, between an organic phase and buffer at a given pH. Low values mean lower lipophilicity, high ones higher lipophilicity. For orientation: bioavailability means dose-corrected exposure relative to a reference, in per cent. The low end stands for little systemic uptake, the high end for much systemic uptake. Turning to `COc1ccccc1N1CCN(CCCNc2cc(=O)n(C)c(=O)n2C)CC1`, in the data set “physchem [1]”, the pKa was found to be 7.1. Besides, the “delta logD” value in data set [2] is recorded as -0.52. Further, in the data set “physchem [3]”, the logD came out at 0.9. Besides, in the data set “clinical”, the bioavailability was found to be 79%.
Compound `OCCN1CCN(CCC=C2c3ccccc3Sc3ccc(C(F)(F)F)cc32)CC1` gave a pKa in the data set “physchem [1]” of 8.1. Moreover, in data set [2], the “delta logD” value is reported as -0.83. In the data set “physchem [3]”, this compound gave a logD of 2.88. In the data set “clinical”, the bioavailability was determined as 79%.
Turning to `CC(C)(C)NC[C@@H](O)COc1ccccc1C1CCCC1`, the pKa in “physchem [1]” came out at 9.3. Moreover, in data set [2], the “delta logD” value is -0.9. In “physchem [3]”, this compound showed a logD of 1.35. The compound further gave a bioavailability in the data set “clinical” of 79%.
For `CC(C)COCC(CN(Cc1ccccc1)c1ccccc1)N1CCCC1` (configuration not stated) [BEPRIDIL], in that order: 9.3, -0.9, 1.1 and 79%.
For `COc1ccc(CCNCC(O)COc2cccc(C)c2)cc1OC` (configuration not stated) [BEVANTOLOL], the pKa in the data set “physchem [1]” came to 8.4. In data set [2], the “delta logD” value is -0.87. The log distribution coefficient (logD) in the data set “physchem [3]” stood at 1.11. Besides, in “clinical”, the bioavailability is 79%.
For `Nc1c(CC(=O)O)cccc1C(=O)c1ccc(Br)cc1` [BROMFENAC], in that order: 4.3, 0.9, 1.39 and 79%.
Take `Cc1nnc2n1-c1sc(Br)cc1C(c1ccccc1Cl)=NC2` [BROTIZOLAM]: the pKa in the data set “physchem [1]” was found to be 6.2. In addition, in data set [2], the “delta logD” value is -0.14. For the same compound, the logD in the data set “physchem [3]” was 2.63. Further, in “clinical”, the bioavailability was 79%.
The compound `CCc1cccc2cc(C(O)CNC(C)(C)C)oc12` (configuration not stated) [BUFURALOL] yielded a pKa in “physchem [1]” of 9. Also, the “delta logD” value in data set [2] is reported as -0.89. The logD in “physchem [3]” was determined as 1. This compound also returned a bioavailability in “clinical” of 79%.
In “physchem [1]”, `CC(C)(C)NCC(O)COc1cccc2c1CCCC2=O` (configuration not stated) [BUNOLOL] came in with a pKa of 9.3. Further, in data set [2], the “delta logD” value was -0.9. In addition, the logD in the data set “physchem [3]” was -0.4. In the data set “clinical”, this compound had a bioavailability of 79%.
Consider `Cc1onc(-c2c(Cl)cccc2Cl)c1C(=O)N[C@@H]1C(=O)N2[C@@H]1SC(C)(C)[C@@H]2C(=O)O` [DICLOXACILLIN], for which the pKa in the data set “physchem [1]” was 2.8. For the same compound, the “delta logD” value in data set [2] was 0.9. Moreover, in “physchem [3]”, the logD was -0.79. In the data set “clinical”, this compound displayed a bioavailability of 79%.
Turning to `COc1cc2nc(N3CCN(C(=O)C4COc5ccccc5O4)CC3)nc(N)c2cc1OC` (configuration not stated) [DOXAZOSIN], the pKa in “physchem [1]” came to 6.5. The “delta logD” value in data set [2] is recorded as -0.25. In “physchem [3]”, the logD was 1.14. The same compound showed a bioavailability in the data set “clinical” of 79%.
Compound `COc1ccc2c(c1)N(C[C@H](C)CN(C)C)c1ccccc1S2` [LEVOMEPROMAZINE] yielded a pKa in the data set “physchem [1]” of 9.2. Besides, the “delta logD” value in data set [2] is listed as -0.89. This compound registered a logD in “physchem [3]” of 1.98. Moreover, in the data set “clinical”, the bioavailability was determined as 79%.
For the compound `CCOC(=O)C1(c2ccccc2)CCN(C)CC1` [MEPERIDINE], the “delta logD” value in data set [2] is listed as -0.88. Besides, the logD in “physchem [3]” worked out at 0.25. In “clinical”, this compound returned a bioavailability of 79%.
For `COCC(=O)O[C@]1(CCN(C)CCCc2nc3ccccc3[nH]2)CCc2cc(F)ccc2[C@@H]1C(C)C` [MIBEFRADIL], the pKa in “physchem [1]” came to 9.3. Moreover, the “delta logD” value in data set [2] was -0.9. For the same compound, the logD in “physchem [3]” is 1.25. The same compound returned a bioavailability in “clinical” of 79%.
In the data set “physchem [1]”, `O=C(NCCN1CCOCC1)c1ccc(Cl)cc1` [MOCLOBEMIDE] displayed a pKa of 6.2. Also, in data set [2], the “delta logD” value is given as -0.15. In addition, in “physchem [3]”, the logD worked out at 1.26. For the same compound, in “clinical”, the bioavailability came to 79%.
As for `Cc1cc2c(s1)Nc1ccccc1N=C2N1CCN(C)CC1` [OLANZAPINE], in the data set “physchem [1]”, the pKa was found to be 8. For the same compound, the “delta logD” value in data set [2] is on record as -0.81. In addition, in the data set “physchem [3]”, the logD is -0.02. The same compound gave a bioavailability in “clinical” of 79%.
In turn, `COc1ccc2[nH]c([S+]([O-])Cc3ncc(C)c(OC)c3C)nc2c1` (configuration not stated) [OMEPRAZOLE] displayed a pKa in the data set “physchem [1]” of 5.2. Moreover, the “delta logD” value in data set [2] was -0.02. The same compound came in with a logD in the data set “physchem [3]” of 2.21. In the data set “clinical”, this compound came in with a bioavailability of 79%.

The values above are taken from ChEMBL document CHEMBL1133765, “QSAR model for drug human oral bioavailability” (J Med Chem, 2000).
